Consider 1 compound from patent EP0532446A1, “Use of xanthines in the treatment or prevention of hypeoglycemia” (NOVO NORDISK A/S, priority 1991, dated 1993).

Where “and” joins values, the source holds several entries; their conditions need not be identical. Equal values may be shown once.

What all share (type): in vivo
The nature of experiment [1]: Influence of theophyllamine on the blood glucose level after insulin-induced hypoglycaemia in healthy subjects. On the procedure: Under carefully controlled conditions hypoglycaemia was induced in each of eleven healty subjects by injection of Actrapid® Human insulin, 0.15 IU/kg (available from Novo Nordisk A/S, Bagsvaerd, Denmark). The blood glucose level was monitored from just before the injection of the insulin took place until 2 hours after. The basal level, the nadir level and the level after 1 hour and 2 hours for each subject are given in Table 1 under the entry "placebo".
On a different day a study similar to the one described above was performed on the same subjects, the only difference being that in this second study theophyllamine was administered concomitantly with the insulin. The theophyllamine was administered in the form of a bolus injection of 220 mg per person given at the same time as the insulin followed by a constant rate infusion of theophyllamine of 2,5 mg/kg body weight/hour. The corresponding glucose levels are given in Table 1 under the entry "theophyllamine".

The nature of experiment [2]: Influence of theophyllamine on the blood glucose level after insulin-induced hypoglycaemia in diabetic patients. On the procedure: Under carefully controlled conditions hypoglycaemia was induced in each of nine diabetic patients by injection of Actrapid® Human insulin, 0.15 IU/kg (available from Novo Nordisk A/S, Bagsvaerd, Denmark). The blood glucose level was monitored from just before the injection of the insulin took place until 2 hours after. The basal level, the nadir level and the level after 1 hour and 2 hours for each subject are given in Table 2 under the entry "placebo".
On a different day a study similar to the one described above was performed on the same patients, the only difference being that in this second study theophyllamine was administered concomitantly with the insulin. The theophyllamine was administered in the form of a bolus injection of 220 mg per person followed by a constant rate infusion of theophyllamine of 2,5 mg/kg body weight/hour. The corresponding glucose levels are given in Table 2 under the entry "theophyllamine".

The nature of experiment [3]: Awareness of early hypoglycaemia warning symptoms in diabetic patients taking theophyllamine regularly. The conditions noted are these: some diabetic patients who have taken theophyllamine regularly as a preventive measure. An excerpt: Usually hypoglycaemia can be relieved by administration of glucose or glucagon. Normally, but not always, a hypoglycaemic episode is preceded by some early warning symptoms which makes it possible for the patient to take measures against it. Throughout this specification the diabetic patients' attention to these early warning symptoms is in accordance with the common usage referred to as the "awareness".

Setting [4] is: healthy subjects, given concomitantly with the insulin.
[5] abbreviates: individual healthy subjects No. 1-11, insulin 0.15 IU/kg, theophyllamine bolus 220 mg per person + infusion 2,5 mg/kg body weight/hour.
The mark [6] stands for this setting: mean of eleven healthy subjects, insulin 0.15 IU/kg, theophyllamine bolus 220 mg per person + infusion 2,5 mg/kg body weight/hour.
Where [7] appears, read: diabetic patients, given concomitantly with the insulin.
Setting [8] is: individual diabetic patients No. 1-9, insulin 0.15 IU/kg, theophyllamine bolus 220 mg per person + infusion 2,5 mg/kg body weight/hour.
The mark [9] stands for this setting: mean of nine diabetic patients, insulin 0.15 IU/kg, theophyllamine bolus 220 mg per person + infusion 2,5 mg/kg body weight/hour.

In the case of `Cn1c(=O)c2[nH]cnc2n(C)c1=O` [Theophyllamine, theophyllamine], in experiment [1] (setting [4]), the “glucose level 1 hour after the administration of insulin compared with insulin alone (placebo)” value is given as “higher”, the “glucose level 2 hours after the administration of insulin compared with insulin alone (placebo)” value is “higher” and the “nadir level compared with insulin alone (placebo)” value is on record as “higher”. In experiment [1] (setting [5]), the “Nadir Level (blood glucose)” value was 1.5 mmol/l (2×) and 1.3 mmol/l (2×) and 1.4 mmol/l and 2.0 mmol/l (2×) and 1.9 mmol/l and 1.6 mmol/l and 1.7 mmol/l and 2.4 mmol/l; the “blood glucose level 1 hr after insulin” value is 2.7 mmol/L and 2.4 mmol/L and 2.3 mmol/L and 3.1 mmol/L and 2.8 mmol/L and 2.5 mmol/L and 3.0 mmol/L and 3.8 mmol/L and 2.6 mmol/L and 3.4 mmol/L and 2.0 mmol/L; the “blood glucose level 2 hr after insulin” value was 3.9 mmol/l and 2.6 mmol/l and 3.1 mmol/l and 4.3 mmol/l (2×) and 4.1 mmol/l and 3.5 mmol/l (2×) and 4.5 mmol/l and 5.4 mmol/l and 5.1 mmol/l. Further, the “Basal Level (blood glucose)” value in experiment [1] (individual healthy subjects No. 1-11, just before injection of insulin 0.15 IU/kg and theophyllamine) is 5.2 mmol/l (4×) and 5.0 mmol/l (2×) and 5.9 mmol/l and 5.8 mmol/l (2×) and 5.6 mmol/l and 5.7 mmol/l. In experiment [1] (setting [6]), the “Nadir level (blood glucose), MEAN” value stood at 1.7 mmol/L; the “blood glucose level 1 hr after insulin, MEAN” value was found to be 2.8 mmol/L; the “blood glucose level 2 hr after insulin, MEAN” value came out at 4.0 mmol/L. Also, the “Basal Level (blood glucose), MEAN” value in experiment [1] (mean of eleven healthy subjects, just before injection of insulin 0.15 IU/kg and theophyllamine) is 5.4 mmol/L. Moreover, in experiment [2] (setting [7]), the “glucose level 1 hour after the administration of insulin compared with insulin alone (placebo)” value is on record as “higher”, the “glucose level 2 hours after the administration of insulin compared with insulin alone (placebo)” value was “higher” and the “nadir level compared with insulin alone (placebo)” value is on record as “higher”. Besides, in experiment [2] (setting [8]), the “Nadir Level (blood glucose)” value is 1.5 mmol/l (2×) and 4.1 mmol/l and 1.1 mmol/l (2×) and 1.7 mmol/l and 2.6 mmol/l and 1.4 mmol/l and 2.2 mmol/l; the “blood glucose level 1 hr after insulin” value was 2.9 mmol/l (2×) and 2.1 mmol/l (3×) and 4.4 mmol/l and 1.9 mmol/l and 2.5 mmol/l (2×); the “blood glucose level 2 hr after insulin” value was 4.8 mmol/l and 3.7 mmol/l (2×) and 6.4 mmol/l and 3.1 mmol/l and 3.0 mmol/l (3×) and 3.8 mmol/l. In experiment [2] (individual diabetic patients No. 1-9, just before injection of insulin 0.15 IU/kg and theophyllamine), the “Basal Level (blood glucose)” value was 4.8 mmol/l and 4.5 mmol/l (2×) and 5.5 mmol/l and 4.6 mmol/l and 5.6 mmol/l and 4.7 mmol/l and 6.0 mmol/l and 4.9 mmol/l. Besides, in experiment [2] (setting [9]), the “Nadir level (blood glucose), MEAN” value was 2.2 mmol/L; the “blood glucose level 1 hr after insulin, MEAN” value amounted to 2.6 mmol/L; the “blood glucose level 2 hr after insulin, MEAN” value turned out to be 3.8 mmol/L. In addition, the “Basal Level (blood glucose), MEAN” value in experiment [2] (mean of nine diabetic patients, just before injection of insulin 0.15 IU/kg and theophyllamine) was found to be 5.0 mmol/L. For the same compound, the awareness result in experiment [3] is “improved awareness”.
